Data from patent US5045543A, “5-amino or substituted amino 1,2,3-triazoles useful as antimetastatic agents” (Merck & Co., Inc., priority 1989, dated 1991).
Values after ≈ are worked out from the molar mass of the structure shown.

How the values were obtained:
[1] = system: PAPp26 Murine Keratinocytes; settings: proliferation assay
Description: In these experiments Murine keratinocyte transformed cell line PAPp26 was cultured in Dulbecco's modified Eagle's medium with 10% fetal calf serum at 37° C., 5% CO2. Each well of a 96 well plate was seeded with 2000 cells in 200 μl of each drug dilution in duplicate. A plate was stopped and fixed for each time point, stained with Giemsa and then read in a Titertek plate reader at 650 nm, and the absorbances were calibrated with known cell numbers on control plates.

[2] = system: pig skin epidermal basal cells (keratinocytes); test: UV induced hyperproliferation in pig skin in vivo (topical antiproliferative activity)
Description: The topical antiproliferative activities, along with in vitro antiproliferative activities against human keratinocytes and fibroblasts, provide the biological data in support of the claimed utility:
In one experiment, a 20 kg pig was sedated and multiple areas of clipped skin were exposed to uv radiation sufficient to provoke a moderate hyperproliferative response within several days of exposure. On days 0, 1, 2 and 3 replicate irradiated sites were treated topically with Compound A in several vehicles or solvents. Topical preparations included a 2% drug in Gel #1, a combination of isopropyl myristate:Crodamol:ethanol, 1:1:2, or DMSO. The hyperproliferative response of the skin to uv was assessed on day 4 by injecting ^3 H-thymidine intradermally, and, 1 hour later, removing the sites by punch biopsy and processing the samples for autoradiography. Such autoradiographs indicate the number of epidermal cells in S phase synthesizing DNA and this is a common tool used by dermatologists to assess inhibition of proliferation in vivo. A single injection of methotrexate, 4 hours prior to ^3 H-thymidine injection was used as a positive control for inhibition of DNA synthesis. A labelling index, L.I., which is the percent of the total number of epidermal basal cells (keratinocytes) counted showing label incorporation. Four days after exposure to uv, the L.I. of pig skin increased from 7.6% to 20.8% (normal human skin ca. 2%, psoriatic lesions ca. 25%, for comparison).

[3] = system: psoriasis; settings: cited from earlier work; for side effects in psoriasis treatment: in vivo; for efficacy in psoriasis: mycophenolic acid given orally; for clearing of psoriatic lesions: used experimentally

SMILES | ED50 PAPp26 [1] [µg/mL] | side effects in psoriasis treatment [3] | efficacy in psoriasis [3] | also measured
NC(=O)c1nnn(Cc2cc(Cl)c(C(=O)c3ccc(Cl)cc3)c(Cl)c2)c1N [(B)] | 2 (≈ 4.71 µM) |  |  | 
NC(=O)c1nnn(Cc2ccc(Sc3ccc(Cl)cc3)c(Cl)c2)c1N [(C)] | 1 to 2 (≈ 2.54 to 5.07 µM) |  |  | 
NC(=O)c1nnn(Cc2ccc(Sc3ccc(Cl)cc3)c(C(F)(F)F)c2)c1N [(D)] | 1 to 2 (≈ 2.34 to 4.67 µM) |  |  | 
Cc1cc(Cn2nnc(C(N)=O)c2N)cc(Cl)c1C(=O)c1ccc(C(F)(F)F)cc1 [(E)] | 2 (≈ 4.57 µM) |  |  | 
N#Cc1ccc(C(=O)c2c(Cl)cc(Cn3nnc(C(N)=O)c3N)cc2Cl)cc1 [(F)] | 2 (≈ 4.82 µM) |  |  | 
NC(=O)c1nnn(Cc2cc(Cl)c(C(=O)c3ccc(Cl)cc3)c(Br)c2)c1N [(G)] | 2 (≈ 4.26 µM) |  |  | 
NC(=O)c1nnn(Cc2cc(Cl)c(Oc3ccc(Br)cc3)c(Cl)c2)c1N [(H)] | 1 to 2 (≈ 2.19 to 4.38 µM) |  |  | 
NC(=O)c1nnn(Cc2cc(Cl)c(C(=O)c3ccc(Br)cc3)c(Cl)c2)c1N [(J)] | 1 to 2 (≈ 2.13 to 4.26 µM) |  |  | 
NC(=O)c1nnn(Cc2cc(Cl)c(Oc3ccc([N+](=O)[O-])cc3)c(Cl)c2)c1N [(K)] | 2 (≈ 4.73 µM) |  |  | 
Cc1cc(Cn2nnc(C(N)=O)c2N)cc(Cl)c1Oc1ccc(Cl)cc1 [(L)] | 2 (≈ 5.1 µM) |  |  | 
CN(Cc1cnc2nc(N)nc(N)c2n1)c1ccc(C(=O)N[C@@H](CCC(=O)O)C(=O)O)cc1 [Methotrexate, methotrexate, reference compound] |  | unacceptable side effects due to toxicity | effective in treating the disease | UV induced hyperproliferation, % Inhibition ([2]; i.d. injection): 93%; Labelled Cells ([2]; i.d., single injection 4 hours prior to 3H-thymidine, of 1175 basal cells counted): 100; LI (labelling index) ([2]; i.d., uv exposed Gel #1 control 20.8, normal 7.6): 8.5%
COc1c(C)c2c(c(O)c1C/C=C(\C)CCC(=O)O)C(=O)OC2 [Mycophenolic acid] |  | unacceptable side effects | controls psoriasis by causing remission when given orally | clearing of psoriatic lesions [3]: success in clearing lesions
O=C(O)C[C@H](NC(=O)CP(=O)(O)O)C(=O)O [N-phosphonacetyl-L-aspartate] |  | unacceptable side effects due to toxicity | effective in treating the disease | 
O=c1[nH]cc(F)c(=O)[nH]1 [fluorouracil] |  | unacceptable side effects due to toxicity | effective in treating the disease | 
Nc1nc2nc[nH]c2c(=S)[nH]1 [thioguanine] |  | unacceptable side effects due to toxicity | effective in treating the disease | clearing of psoriatic lesions [3]: success in clearing lesions
